Assay: Residual antioxidant activity (ABTS^+) upon exposure to UV-irradiated TiO2
Format: physicochemical
Details: FIG. 6
Protocol: Exposure of enzymes to UV-irradiated TiO2: Enzyme (0.8 mg protein/mL, total 10 mL in 25 mM phosphate buffer, pH 7.5) was placed in an open scintillation vial. TiO2 fine powder (0.25 mg/mL) was added to the protein solution and the suspension was stirred gently at room temperature (25° C.) with a magnetic stir bar placed inside the vial. The enzyme-TiO2 suspension was placed under a […] UV lamp (model No. B-100AP, UVP, San Gabriel, Calif.). The distance between the UV lamp and the vial was 18 cm. At this distance, the UV irradiance at 365 nm (λmax) was 8 mW/cm^2 (determined using a […]® UV meter (Model No. J-221). It was also verified that there was no thermal denaturation of the enzyme during irradiation and the temperature of the enzyme-TiO2 suspension remained constant (25±2° C.) throughout. Exposure of antioxidants to UV-irradiated TiO2: Trolox (0.01 mg/mL) was dissolved in 10 mL phosphate buffer (25 mM, pH 7.5). TiO2 (0.25 mg/mL) was added to the Trolox solution. The suspension was stirred and irradiated with UV as described above. At 30 min intervals, 1 mL aliquots were removed from the irradiating suspension and filtered through a 0.2 μm filter. […] Determination of residual antioxidant activity: Antioxidant activities of modified enzymes and the modifiers were measured according to the following modification of the assay reported by Re et al. Re, […].; Yang, M.; Rice-Evans, C. […]

loss of free radical absorbing activity during the first hour of photooxidation (TiO2-UV): 80%
Structure (SMILES): Cc1c(C)c2c(c(C)c1O)CCC(C)(C(=O)O)O2 (stereo not shown) [Trolox, 6-hydroxy-2,5,7,8-tetramethylchroman-2-carboxylic acid]

Reference: patent publication US20060116451A1, “Stabilization of antioxidants” (priority 2004, published 2006)
